Data published in patent publication US20080275032A1, “Pyridazinone compounds” (priority 2006, published 2008).
Counter-ions that a name gives are not always drawn.

The compounds below were run against HCV NS5B polymerase (Hepatitis C virus genotype 1b, UniProt P26663) (assay: biochemical). Conditions: HCV polymerase inhibition, 50 nM enzyme, 2 h at room temperature, FlashPlate [α-33P]GTP incorporation.
Procedure: NS5B Polymerase Inhibition Assay (IC50)
Compounds were tested for HCV polymerase inhibition. Assays were performed in a 96-well streptavidin-coated FlashPlate using 50 nM enzyme, 0.5 μCi of [α-^33P]GTP, 0.6 μM GTP, and 50 nM 5′biotinylated oligo (rG13)/poly rC in 20 mM Tris-HCl, pH 7.5, 5 mM MgCl2, 20 mM NaCl, 5 mM dithiothreitol, and 0.1 g/L BSA. The reaction was stopped by aspiration after 2 h at room temperature and the plate was washed several times. After washing, incorporated radioactivity was counted using a Microbeta scintillation counter.

Sequence of HCV NS5B polymerase (P26663 2420-3010): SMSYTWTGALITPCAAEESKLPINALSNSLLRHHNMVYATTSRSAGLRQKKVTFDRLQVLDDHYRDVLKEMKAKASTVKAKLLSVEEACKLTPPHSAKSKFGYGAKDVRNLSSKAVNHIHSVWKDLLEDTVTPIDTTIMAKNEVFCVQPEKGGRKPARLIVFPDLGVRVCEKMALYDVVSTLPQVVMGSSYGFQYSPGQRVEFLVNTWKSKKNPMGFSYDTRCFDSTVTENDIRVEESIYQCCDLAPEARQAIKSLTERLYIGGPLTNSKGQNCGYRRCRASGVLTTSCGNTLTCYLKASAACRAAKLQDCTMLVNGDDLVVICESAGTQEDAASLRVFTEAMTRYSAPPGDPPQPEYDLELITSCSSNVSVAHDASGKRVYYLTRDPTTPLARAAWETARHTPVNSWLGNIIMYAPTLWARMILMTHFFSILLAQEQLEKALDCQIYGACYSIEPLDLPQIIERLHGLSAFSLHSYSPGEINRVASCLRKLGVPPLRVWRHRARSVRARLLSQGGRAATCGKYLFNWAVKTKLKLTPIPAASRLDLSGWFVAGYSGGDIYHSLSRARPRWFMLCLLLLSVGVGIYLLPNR

SMILES	IC50
CS(=O)(=O)Nc1ccc2c(c1)S(=O)(=O)NC(c1c(O)c(-c3cncs3)nn(CC3CCC3)c1=O)=N2 [N-[3-(2-Cyclobutylmethyl-5-hydroxy-3-oxo-6-thiazol-5-yl-2,3-dihydro-pyridazin-4-yl)-1,1-dioxo-1,2-dihydro-1λ^6-benzo[1,2,4]thiadiazin-7-yl]-methanesulfonamide]	< 100 nM
CS(=O)(=O)Nc1ccc2c(c1)S(=O)(=O)NC(c1c(O)c(-c3cccs3)nn(CC3CCC3)c1=O)=N2 [N-[3-(2-Cyclobutylmethyl-5-hydroxy-3-oxo-6-thiophen-2-yl-2,3-dihydro-pyridazin-4-yl)-1,1-dioxo-1,2-dihydro-1λ^6-benzo[1,2,4]thiadiazin-7-yl]-methanesulfonamide]	< 100 nM
CS(=O)(=O)Nc1ccc2c(c1)S(=O)(=O)NC(c1c(O)c(-c3ccccc3)nn(CC3CC3)c1=O)=N2 [N-[3-(2-Cyclopropylmethyl-5-hydroxy-3-oxo-6-phenyl-2,3-dihydro-pyridazin-4-yl)-1,1-dioxo-1,2-dihydro-1l6-benzo[1,2,4]thiadiazin-7-yl]-methanesulfonamide]	100 to 1000 nM
CCC(C)n1nc(-c2cccs2)c(O)c(C2=NS(=O)(=O)c3cc(NS(C)(=O)=O)ccc3N2)c1=O (stereo not shown) [N-[3-(2-sec-Butyl-5-hydroxy-3-oxo-6-thiophen-2-yl-2,3-dihydro-pyridazin-4-yl)-1,1-dioxo-1,2-dihydro-1λ^6-benzo[1,2,4]thiadiazin-7-yl]-methanesulfonamide]	100 to 1000 nM
CS(=O)(=O)Nc1ccc2c(c1)S(=O)(=O)NC(c1c(O)c(-c3cccs3)nn(Cc3ccccn3)c1=O)=N2 [N-[3-(5-Hydroxy-3-oxo-2-pyridin-2-ylmethyl-6-thiophen-2-yl-2,3-dihydro-pyridazin-4-yl)-1,1-dioxo-1,2-dihydro-1λ^6-benzo[1,2,4]thiadiazin-7-yl]-methanesulfonamide]	< 100 nM
CS(=O)(=O)Nc1ccc2c(c1)S(=O)(=O)N=C(c1c(O)c(-c3cccs3)nn(Cc3ccsc3)c1=O)N2 [N-[3-(5-Hydroxy-3-oxo-6-thiophen-2-yl-2-thiophen-3-ylmethyl-2,3-dihydro-pyridazin-4-yl)-1,1-dioxo-1,2-dihydro-1λ^6-benzo[1,2,4]thiadiazin-7-yl]-methanesulfonamide]	< 100 nM
CC(C)CC(C)n1nc(-c2cccs2)c(O)c(C2=NS(=O)(=O)c3cc(NS(C)(=O)=O)ccc3N2)c1=O (stereo not shown) [N-{3-[2-(1,3-Dimethyl-butyl)-5-hydroxy-3-oxo-6-thiophen-2-yl-2,3-dihydro-pyridazin-4-yl]-1,1-dioxo-1,2-dihydro-1λ^6-benzo[1,2,4]thiadiazin-7-yl}-methanesulfonamide]	100 to 1000 nM
CC(C)(C)Cn1nc(-c2cccs2)c(O)c(C2=Nc3ccc(NS(C)(=O)=O)cc3S(=O)(=O)N2)c1=O [N-{3-[2-(2,2-Dimethyl-propyl)-5-hydroxy-3-oxo-6-thiophen-2-yl-2,3-dihydro-pyridazin-4-yl]-1,1-dioxo-1,2-dihydro-1λ^6-benzo[1,2,4]thiadiazin-7-yl}-methanesulfonamide]	< 100 nM
CS(=O)(=O)Nc1ccc2c(c1)S(=O)(=O)N=C(c1c(O)c(-c3cccs3)nn(CCC3CCCCC3)c1=O)N2 [N-{3-[2-(2-Cyclohexyl-ethyl)-5-hydroxy-3-oxo-6-thiophen-2-yl-2,3-dihydro-pyridazin-4-yl]-1,1-dioxo-1,2-dihydro-1λ^6-benzo[1,2,4]thiadiazin-7-yl}-methanesulfonamide]	100 to 1000 nM
CS(=O)(=O)Nc1ccc2c(c1)S(=O)(=O)N=C(c1c(O)c(-c3cccs3)nn(CCC3CCCC3)c1=O)N2 [N-{3-[2-(2-Cyclopentyl-ethyl)-5-hydroxy-3-oxo-6-thiophen-2-yl-2,3-dihydro-pyridazin-4-yl]-1,1-dioxo-1,2-dihydro-1λ^6-benzo[1,2,4]thiadiazin-7-yl}-methanesulfonamide]	< 100 nM
CS(=O)(=O)Nc1ccc2c(c1)S(=O)(=O)NC(c1c(O)c(-c3cncs3)nn(CCC3CC3)c1=O)=N2 [N-{3-[2-(2-Cyclopropyl-ethyl)-5-hydroxy-3-oxo-6-thiazol-5-yl-2,3-dihydro-pyridazin-4-yl]-1,1-dioxo-1,2-dihydro-1λ^6-benzo[1,2,4]thiadiazin-7-yl}-methanesulfonamide]	< 100 nM
CS(=O)(=O)Nc1ccc2c(c1)S(=O)(=O)N=C(c1c(O)c(-c3cccs3)nn(CCC3CC3)c1=O)N2 [N-{3-[2-(2-Cyclopropyl-ethyl)-5-hydroxy-3-oxo-6-thiophen-2-yl-2,3-dihydro-pyridazin-4-yl]-1,1-dioxo-1,2-dihydro-1λ^6-benzo[1,2,4]thiadiazin-7-yl}-methanesulfonamide]	< 100 nM
CS(=O)(=O)Nc1ccc2c(c1)S(=O)(=O)NC(c1c(O)c(-c3ccsc3)nn(CCC3CC3)c1=O)=N2 [N-{3-[2-(2-Cyclopropyl-ethyl)-5-hydroxy-3-oxo-6-thiophen-3-yl-2,3-dihydro-pyridazin-4-yl]-1,1-dioxo-1,2-dihydro-1λ^6-benzo[1,2,4]thiadiazin-7-yl}-methanesulfonamide]	< 100 nM
CC(C)=Cc1nn(CCC2CC2)c(=O)c(C2=Nc3ccc(NS(C)(=O)=O)cc3S(=O)(=O)N2)c1O [N-{3-[2-(2-Cyclopropyl-ethyl)-5-hydroxy-6-(2-methyl-propenyl)-3-oxo-2,3-dihydro-pyridazin-4-yl]-1,1-dioxo-1,2-dihydro-1λ^6-benzo[1,2,4]thiadiazin-7-yl}-methanesulfonamide]	< 100 nM

Further lines, results first:

IC50	SMILES
< 100 nM	CC(C)(C)CCn1nc(-c2cccs2)c(O)c(C2=NS(=O)(=O)c3cc(NS(N)(=O)=O)ccc3N2)c1=O [N-{3-[2-(3,3-Dimethyl-butyl)-5-hydroxy-3-oxo-6-thiophen-2-yl-2,3-dihydro-pyridazin-4-yl]-1,1-dioxo-1,2-dihydro-1λ^6-benzo[1,2,4]thiadiazin-7-yl}-sulfamide]
< 100 nM	CCC(C)(C)CCn1nc(-c2cccs2)c(O)c(C2=NS(=O)(=O)c3cc(NS(C)(=O)=O)ccc3N2)c1=O [N-{3-[2-(3,3-Dimethyl-pentyl)-5-hydroxy-3-oxo-6-thiophen-2-yl-2,3-dihydro-pyridazin-4-yl]-1,1-dioxo-1,2-dihydro-1λ^6-benzo[1,2,4]thiadiazin-7-yl}-methanesulfonamide]
< 100 nM	CC(C)(C)CCn1nc(-c2cccs2)c(O)c(C2=Nc3ccc(NS(C)(=O)=O)cc3S(=O)(=O)N2)c1=O [N-{3-[2-(3,3-dimethyl-butyl)-5-hydroxy-3-oxo-6-thiophen-2-yl-2,3-dihydro-pyridazin-4-yl]-1,1-dioxo-1,2-dihydro-1λ^6-benzo[1,2,4]thiadiazin-7-yl}-methanesulfonamide, sodium salt]
< 100 nM	CS(=O)(=O)Nc1ccc2c(c1)S(=O)(=O)N=C(c1c(O)c(-c3cccs3)nn(Cc3ccc(F)c(Cl)c3)c1=O)N2 [N-{3-[2-(3-Chloro-4-fluoro-benzyl)-5-hydroxy-3-oxo-6-thiophen-2-yl-2,3-dihydro-pyridazin-4-yl]-1,1-dioxo-1,2-dihydro-1λ^6-benzo[1,2,4]thiadiazin-7-yl}-methanesulfonamide]
< 100 nM	CS(=O)(=O)Nc1ccc2c(c1)S(=O)(=O)NC(c1c(O)c(-c3cncs3)nn(Cc3ccc(F)cc3)c1=O)=N2 [N-{3-[2-(4-Fluoro-benzyl)-5-hydroxy-3-oxo-6-thiazol-5-yl-2,3-dihydro-pyridazin-4-yl]-1,1-dioxo-1,2-dihydro-1λ^6-benzo[1,2,4]thiadiazin-7-yl}-methanesulfonamide]
< 100 nM	CS(=O)(=O)Nc1ccc2c(c1)S(=O)(=O)N=C(c1c(O)c(-c3cccs3)nn(Cc3ccc(F)cc3)c1=O)N2 [N-{3-[2-(4-Fluoro-benzyl)-5-hydroxy-3-oxo-6-thiophen-2-yl-2,3-dihydro-pyridazin-4-yl]-1,1-dioxo-1,2-dihydro-1λ^6-benzo[1,2,4]thiadiazin-7-yl}-methanesulfonamide]
1000 to 10000 nM	CN1C(c2c(O)c(-c3cccs3)nn(Cc3ccc(F)cc3)c2=O)=NS(=O)(=O)c2cc(NS(C)(=O)=O)ccc21 [N-{3-[2-(4-Fluoro-benzyl)-5-hydroxy-3-oxo-6-thiophen-2-yl-2,3-dihydro-pyridazin-4-yl]-4-methyl-1,1-dioxo-1,4-dihydro-1λ^6-benzo[1,2,4]thiadiazin-7-yl}-methanesulfonamide]
1000 to 10000 nM	CN(c1ccc2c(c1)S(=O)(=O)NC(c1c(O)c(CC(C)(C)C)nn(CC3CCC3)c1=O)=N2)S(C)(=O)=O [N-{3-[2-Cyclobutylmethyl-6-(2,2-dimethyl-propyl)-5-hydroxy-3-oxo-2,3-dihydro-pyridazin-4-yl]-1,1-dioxo-1,2-dihydro-1λ^6-benzo[1,2,4]thiadiazin-7-yl}-N-methyl-methanesulfonamide]
100 to 1000 nM	CCCC(C)n1nc(-c2cccs2)c(O)c(C2=NS(=O)(=O)c3cc(NS(C)(=O)=O)ccc3N2)c1=O (stereo not shown) [N-{3-[5-Hydroxy-2-(1-methyl-butyl)-3-oxo-6-thiophen-2-yl-2,3-dihydro-pyridazin-4-yl]-1,1-dioxo-1,2-dihydro-1λ^6-benzo[1,2,4]thiadiazin-7-yl}-methanesulfonamide]
< 100 nM	COCCn1nc(-c2cccs2)c(O)c(C2=NS(=O)(=O)c3cc(NS(C)(=O)=O)ccc3N2)c1=O [N-{3-[5-Hydroxy-2-(2-methoxy-ethyl)-3-oxo-6-thiophen-2-yl-2,3-dihydro-pyridazin-4-yl]-1,1-dioxo-1,2-dihydro-1λ^6-benzo[1,2,4]thiadiazin-7-yl}-methanesulfonamide]
< 100 nM	COC(C)(C)CCn1nc(-c2cccs2)c(O)c(C2=NS(=O)(=O)c3cc(NS(C)(=O)=O)ccc3N2)c1=O [N-{3-[5-Hydroxy-2-(3-methoxy-3-methyl-butyl)-3-oxo-6-thiophen-2-yl-2,3-dihydro-pyridazin-4-yl]-1,1-dioxo-1,2-dihydro-1λ^6-benzo[1,2,4]thiadiazin-7-yl}-methanesulfonamide]
